Series [1] concerns Mycobacterium tuberculosis. Nature of the series: Antibacterial activity against Mycobacterium tuberculosis incubated for 1 to 2 weeks in 7H9/ADC/Tw medium. It counts as functional. Conditions: time 1-2 weeks.
The test system of series [2] is Mycobacterium tuberculosis. Kind of series: Antibacterial activity against Mycobacterium tuberculosis incubated for 1 to 2 weeks in GastFe medium. It counts as functional. Conditions: time 1-2 weeks.
Series [3] has as its system Mycobacterium tuberculosis. Kind of series: Antibacterial activity against Mycobacterium tuberculosis incubated for 1 to 2 weeks in 7H9/DPPC/casitone/Tx medium. It counts as functional. Conditions: time 1-2 weeks.
The test system of a further series is Vero. Nature of the series: Cytotoxicity against African green monkey Vero cells measured after 72 hrs by tetrazolium-based colorimetric MTT assay. It counts as toxicity, cell-based. The note with it: chlorocebus sabaeus.
Setting [4] is: Mycobacterium tuberculosis, read-out: MIC99.

In brackets after ≈: the same amount, converted by molar mass.

As for `Nc1cccc(F)c1C(N1CCSCC1)C(F)(F)F` (stereo not drawn), the MIC99 in series [1] (setting [4]), in series [2] (setting [4]) and in series [3] (setting [4]) was 50 µM (≈ 14.7 µg/mL) each time.
Turning to `Nc1cccc(F)c1C(=O)NNc1ccc(C(F)(F)F)cc1`, the results for the MIC99 in series [1] (setting [4]), in series [2] (setting [4]) and in series [3] (setting [4]) were 45.5 µM (≈ 14.2 µg/mL), 11.4 µM (≈ 3.56 µg/mL) and 2.84 µM (≈ 0.89 µg/mL), respectively. This compound yielded a CC50 in the series with Vero of 1.36 mM.
Regarding `Nc1cccc(F)c1C(=O)Nc1ccc(F)cc1`, the MIC99 in series [1] (setting [4]), in series [2] (setting [4]) and in series [3] (setting [4]) was greater than 50 µM in each case.
`Nc1cccc(F)c1C(=O)NNc1cccc(Cl)c1Cl`: the MIC99 in series [1] (setting [4]) is 50 µM (≈ 15.7 µg/mL); in series [2] (setting [4]) it was 12.5 µM (≈ 3.93 µg/mL); in series [3] (setting [4]), 6.25 µM (≈ 1.96 µg/mL). The compound also returned a CC50 with Vero greater than 1.8 mM.
Regarding `Nc1cccc(F)c1C(=O)N1CCCC1`, the MIC99 in series [1] (setting [4]), in series [2] (setting [4]) and in series [3] (setting [4]) was greater than 50 µM in each case.
As for `CC(C)NC(=O)c1c(N)cccc1F`, the MIC99 in series [1] (setting [4]), in series [2] (setting [4]) and in series [3] (setting [4]) was greater than 50 µM throughout.
`Nc1cccc(F)c1C(=O)NC1CCCCC1`: the MIC99 in series [1] (setting [4]), in series [2] (setting [4]) and in series [3] (setting [4]) was greater than 50 µM each time.
As for `Nc1cccc(F)c1C(=O)NNc1cccc([N+](=O)[O-])c1`, the MIC99 in series [1] (setting [4]) was greater than 50 µM; in series [2] (setting [4]), 25 µM (≈ 7.26 µg/mL); in series [3] (setting [4]) it was 6.25 µM (≈ 1.81 µg/mL). For the same compound, in the series with Vero, the CC50 was determined as 1.3 mM.
As for `CN1CCN(C(=O)c2c(N)cccc2F)CC1`, the MIC99 in series [1] (setting [4]), in series [2] (setting [4]) and in series [3] (setting [4]) was greater than 50 µM in each case.
Regarding `Nc1cccc(F)c1C(=O)N1CCCCC1`, the MIC99 in series [1] (setting [4]), in series [2] (setting [4]) and in series [3] (setting [4]) was greater than 50 µM each time.
Turning to `Nc1cccc(F)c1C(=O)NNc1cccc(Cl)c1`, the figures for the MIC99 in series [1] (setting [4]), in series [2] (setting [4]) and in series [3] (setting [4]) were 25 µM (≈ 6.99 µg/mL), 6.25 µM (≈ 1.75 µg/mL) and 1.56 µM (≈ 0.436 µg/mL), respectively. The compound further displayed a CC50 in the series with Vero greater than 1.8 mM.
For the compound `Nc1cccc(F)c1-c1nnn[nH]1`, the MIC99 in series [1] (setting [4]), in series [2] (setting [4]) and in series [3] (setting [4]) was greater than 50 µM throughout.
As for `Cc1nnc(-c2c(N)cccc2F)o1`, the MIC99 in series [1] (setting [4]), in series [2] (setting [4]) and in series [3] (setting [4]) was greater than 50 µM in each case.
On to `Nc1cccc(F)c1C(=O)N1CCOCC1`, for which the MIC99 in series [1] (setting [4]), in series [2] (setting [4]) and in series [3] (setting [4]) was greater than 50 µM throughout.
As to `Nc1cccc(F)c1C(=O)NC1CC1`, the MIC99 in series [1] (setting [4]), in series [2] (setting [4]) and in series [3] (setting [4]) was greater than 50 µM in each case.
As for `CONC(=O)c1c(N)cccc1F`, the MIC99 in series [1] (setting [4]), in series [2] (setting [4]) and in series [3] (setting [4]) was greater than 50 µM each time.
Turning to `Nc1cccc(F)c1C(Nc1ccc(F)cc1)C(F)(F)F` (stereo not drawn), the MIC99 in series [1] (setting [4]), in series [2] (setting [4]) and in series [3] (setting [4]) was 50 µM (≈ 15.1 µg/mL) in each case.
Take `Nc1cccc(F)c1C(=O)O`: in series [1] (setting [4]), the MIC99 came out at 5 µM (≈ 0.776 µg/mL). The midpoint of cytotoxicity in the series on Vero, the CC50, lay at 0.074 mM.
For the compound `NNC(=O)c1c(N)cccc1F`, the MIC99 in series [1] (setting [4]), in series [2] (setting [4]) and in series [3] (setting [4]) was greater than 50 µM each time.
With `Nc1cccc(F)c1C(=O)NNc1ccc(Cl)cc1Cl`, the figures for the MIC99 in series [1] (setting [4]), in series [2] (setting [4]) and in series [3] (setting [4]) were 50 µM (≈ 15.7 µg/mL), 6.25 µM (≈ 1.96 µg/mL) and 3.12 µM (≈ 0.982 µg/mL), respectively. Also, in the series with Vero, the CC50 turned out to be 1.04 mM.
For `Nc1cccc(F)c1C(=O)NNc1cc(Cl)cc(Cl)c1`, the MIC99 in series [1] (setting [4]) is greater than 50 µM; in series [2] (setting [4]), 25 µM (≈ 7.85 µg/mL); in series [3] (setting [4]), 6.25 µM (≈ 1.96 µg/mL).
As for `Nc1cccc(F)c1C(=O)NNc1c(Cl)cc(Cl)cc1Cl`, the MIC99 in series [1] (setting [4]) was 5 µM (≈ 1.74 µg/mL); in series [2] (setting [4]), 1.25 µM (≈ 0.436 µg/mL); in series [3] (setting [4]), 0.625 µM (≈ 0.218 µg/mL). This compound showed a CC50 with Vero greater than 1.8 mM.
Turning to `Nc1cccc(F)c1C(=O)NCCO`, the MIC99 in series [1] (setting [4]), in series [2] (setting [4]) and in series [3] (setting [4]) was greater than 50 µM throughout.
Take `Nc1cccc(F)c1C(=O)NNc1cc(Cl)ccc1Cl`: the MIC99 in series [1] (setting [4]) was greater than 50 µM; in series [2] (setting [4]) it was 25 µM (≈ 7.85 µg/mL); in series [3] (setting [4]), 6.25 µM (≈ 1.96 µg/mL). Also, in the series on Vero, the cytotoxic concentration (CC50) is greater than 1.8 mM.
For `NC(=O)c1c(N)cccc1F`, the MIC99 in series [1] (setting [4]), in series [2] (setting [4]) and in series [3] (setting [4]) was greater than 50 µM throughout.
On to `Nc1cccc(F)c1C(=O)NNc1ccccc1[N+](=O)[O-]`, for which the MIC99 in series [1] (setting [4]) was greater than 50 µM; in series [2] (setting [4]), greater than 50 µM; in series [3] (setting [4]) it was 50 µM (≈ 14.5 µg/mL).
Turning to `Cc1nc(-c2c(N)cccc2F)no1`, the MIC99 in series [1] (setting [4]), in series [2] (setting [4]) and in series [3] (setting [4]) was greater than 50 µM throughout.
On to `COc1ccc(NNC(=O)c2c(N)cccc2F)cc1`, for which the MIC99 in series [1] (setting [4]) was 12.5 µM (≈ 3.44 µg/mL); in series [2] (setting [4]) it was 0.78 µM (≈ 0.215 µg/mL); in series [3] (setting [4]), 1.56 µM (≈ 0.429 µg/mL). In the series with Vero, this compound came in with a CC50 of 1.31 mM.
In the case of `Nc1cccc(F)c1C(=O)NNc1ccccc1`, the MIC99 in series [1] was 12.5 µM (≈ 3.07 µg/mL); in series [3] (setting [4]) it was 1.56 µM (≈ 0.383 µg/mL). Further, in the series with Vero, the CC50 stood at 2.03 mM.
Consider `Nc1cccc(F)c1C(=O)NO`, for which the MIC99 in series [1] (setting [4]), in series [2] (setting [4]) and in series [3] (setting [4]) was greater than 50 µM each time.
Regarding `Nc1cccc(F)c1C(=O)NNc1ccc(Cl)cc1`, the MIC99 in series [1] (setting [4]) came to 12.6 µM (≈ 3.51 µg/mL); in series [2] (setting [4]), 3.12 µM (≈ 0.874 µg/mL); in series [3] (setting [4]), 1.56 µM (≈ 0.436 µg/mL). In the series on Vero, this compound showed a CC50 of 0.373 mM.
As for `CC(C)(C)OC(=O)NNC(=O)c1c(N)cccc1F`, the MIC99 in series [1] (setting [4]), in series [2] (setting [4]) and in series [3] (setting [4]) was greater than 50 µM each time.
On to `Nc1cccc(F)c1C(=O)NNC1CCCCC1`, for which the MIC99 in series [1] (setting [4]) was found to be 9.4 µM (≈ 2.36 µg/mL); in series [2] (setting [4]), 50 µM (≈ 12.6 µg/mL); in series [3] (setting [4]), 9.4 µM (≈ 2.36 µg/mL). Also, half-maximal cytotoxicity in the series with Vero (CC50) was put at 0.909 mM.
Take `Nc1cccc(F)c1C(N1CCOCC1)C(F)(F)F` (stereo not drawn): the MIC99 in series [1] (setting [4]), in series [2] (setting [4]) and in series [3] (setting [4]) was 50 µM (≈ 13.9 µg/mL) each time.
For `Nc1cccc(F)c1C(=O)NNCc1ccccc1`, the MIC99 was greater than 50 µM in series [1] (setting [4]), greater than 50 µM in series [2] (setting [4]) and 50 µM (≈ 13 µg/mL) in series [3] (setting [4]).
Regarding `Nc1cccc(F)c1C(=O)NNc1cccc(F)c1`, the MIC99 was 12.5 µM (≈ 3.29 µg/mL) in series [1] (setting [4]), 6.25 µM (≈ 1.65 µg/mL) in series [2] (setting [4]) and 1.56 µM (≈ 0.411 µg/mL) in series [3] (setting [4]). In the series on Vero, the CC50 worked out at 1.36 mM.
For the compound `Nc1cccc(F)c1C(=O)NNc1ccc(F)cc1`, the MIC99 in series [1] worked out at 9.4 µM (≈ 2.47 µg/mL); in series [2] (setting [4]), 2.3 µM (≈ 0.605 µg/mL); in series [3] (setting [4]), 1.56 µM (≈ 0.411 µg/mL). The CC50 with Vero worked out at 1.36 mM.
As to `Cl.Nc1cccc(F)c1C(=O)NNc1ccc(F)cc1`, the MIC99 in series [2] and in series [3] was 1.4 µM in each case. Besides, in the series on Vero, the CC50 is greater than 1.8 mM.
For `Nc1cccc(F)c1C(=O)NNc1ccccc1Cl`, the MIC99 turned out to be 25 µM (≈ 6.99 µg/mL) in series [1] (setting [4]), 3.12 µM (≈ 0.874 µg/mL) in series [2] (setting [4]) and 3.12 µM (≈ 0.874 µg/mL) in series [3] (setting [4]). Besides, the midpoint of cytotoxicity with Vero, the CC50, lay at 0.792 mM.
Turning to `Cl.Nc1cccc(F)c1C(=O)NNc1ccccc1`, the MIC99 is 2.3 µM in series [2] and 1.3 µM in series [3]. In addition, the CC50 in the series with Vero was greater than 1.8 mM.
As for `Nc1cccc(F)c1C(=O)NNc1ccc(Cl)c(Cl)c1`, the MIC99 was 25 µM (≈ 7.85 µg/mL) in series [1] (setting [4]), 12.5 µM (≈ 3.93 µg/mL) in series [2] (setting [4]) and 1.56 µM (≈ 0.49 µg/mL) in series [3] (setting [4]). This compound came in with a CC50 with Vero greater than 1.8 mM.
Take `NNC(=O)c1ccncc1` [ISONIAZID]: the MIC99 in series [3] (setting [4]) worked out at 0.1 µM (≈ 0.0137 µg/mL).
As for `Nc1cccc(F)c1C(=O)NNc1ccc([N+](=O)[O-])cc1[N+](=O)[O-]`, the MIC99 in series [1] (setting [4]), in series [2] (setting [4]) and in series [3] (setting [4]) was greater than 50 µM each time.
Take `Nc1cccc(F)c1C(=O)NC1CCC1`: the MIC99 in series [1] (setting [4]), in series [2] (setting [4]) and in series [3] (setting [4]) was greater than 50 µM in each case.

The values are drawn from ChEMBL document CHEMBL5214915 (Eur J Med Chem, 2021).
